Patent US11246961B2, “Engineered scaffolds for vascularized tissue repair” (The Regents of the University of California, priority 2016, dated 2022)
Entries after “also recorded” stand apart in the source; their conditions may differ.

Test system: HECFCs
Assay: on-bead whole cell binding assay, HECFCs
Type: cell-based, human
Description: Endothelial colony forming cells (ECFCs), a subtype of EPCs also often referred to as outgrowth endothelial cells (OECs), were isolated from human umbilical cord blood as previously described (Williams et al. (2015) PloS One 10:e0123437; Ingram et al. (2004) Blood 104:2752). Human umbilical cord blood (10 U heparin/mL blood) was obtained from the UC Davis Umbilical Cord Blood Collection Program (UCBCP) and diluted 1:1 with Phosphate-buffered saline (PBS), without calcium and magnesium, pH 7.2 (Hyclone). Fifteen mL Ficoll-Paque PLUS (Amersham Biosciences) was laid at the bottom of 20 mL diluted blood and centrifuged at 2000 rpm for 30 minutes at room temperature. The hazy layer of mononuclear cells (MNCs) that seat at the interface between the Ficoll and serum was collected and dispensed into 50-mL conical tube containing 10 mL EBM-2 (Lonza) and centrifuged at 1500 rpm for 10 minutes at room temperature. The supernatant was carefully aspirated and the pellets were treated with red blood cell lysis buffer (eBioscience, Inc.) and then sorted by CD34 microbead magnetic sorting (Miltenyi Biotec GmbH) as per manufacturer's instructions. The CD34^+ cells were seeded on rat-tail collagen I (BD Biosciences Discovery) coated tissue culture plates and cultured in EGM-2 media (Lonza). After 24 h, non-adherent cells were removed and the media was changed daily to day 7 and every other day thereafter. ECFC-derived colonies appeared between day 4 and day 7 of culture with s typical endothelial cobblestone pattern. Individual colonies were isolated and expanded and allowed to grow to 80% to 90% confluency before first passage. ECFCs were used between P3 and P5 for all experiments.
HECFCs, HCAECs, HMVECs and THP-1 monocytes were cultured in their respective growth medium as described in Example 1. For cell bead-binding assay, 6×10^5 HECFCs, HCAECs, HMVECs or THP-1 monocytes in 2 mL of their respective culture medium were added to an ultra-low attachment 35-mm petri dish (Corning Incorporated) followed by resin beads (Lam et al. (1991) Nature 354:82). […]

Substance: cGRGDdvc [LXW7]
- attachment of HECFCs to beads displaying LXW7 (10 minutes, 30 minutes or 2 hours): efficiently supported attachment of EPCs/ECs from different sources; also recorded: efficiently supported EPC/EC attachment
- binding of HECFCs to ligand-displaying resin beads (2 hours incubation): bound both HECFCs and HCAECs
